The text below walks through data of US11918662B2, “Heterocyclic compounds and imaging agents for imaging huntingtin protein” (CHDI Foundation, Inc., priority 2020, dated 2024).

T1 sequence (P42858 with tags, fused parts or gaps with the stated changes limits assumed): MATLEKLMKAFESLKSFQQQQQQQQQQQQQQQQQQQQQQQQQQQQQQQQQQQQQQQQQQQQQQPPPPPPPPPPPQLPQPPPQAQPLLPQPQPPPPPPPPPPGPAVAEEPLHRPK

One assay has as its target T1, MBP-HTT(1-89)Q46-His(6×) (“Exon1-Q46”) protein aggregates (Homo sapiens, UniProt P42858, INS38QQQQQQQQQQQQQQQQQQQQQQQQQ).
T1 construct: MBP-HTT(1-89)Q46-His(6×); His(6×) (C); made in house
The assay can be described thus: Exon1-Q46 Radioligand Binding Assay.
Settings: not given
How it is done: Exon1-Q46 Radioligand Binding Assay
For experiments 30 μM MBP-Exon1-Q46 was incubated with 150 μg/mL thrombin in assay buffer (150 mM NaCl, 50 mM Tris pH 8.0) and 2 mM CaCl2 for 16 hours at 37° C. Aggregated Exon1-Q46 was pelleted by centrifugation for 5 minutes at 13,000 rpm in a bench top centrifuge and re-dissolved in the same volume of assay buffer. […] For the RBA, Q46 protein aggregates and test compounds were pre-incubated in assay buffer for 20 minutes at room temperature, in 100 μL/well in a 96-well plate (pp, round bottom). Then, ligand was added in 50 μL/well and incubated for 60 minutes at 37° C. Final assay concentrations were […] test compound, 1 μM Exon1-Q46 protein (equivalent monomer concentration) and 0.3 nM ligand [^3H3-methyl]-5-((5-methoxypyridin-2-yl)methoxy)-2-(pyrazin-2-yl)benzo[d]oxazole. Samples were transferred onto GF/B filter plates and washed 2× with 200 μL PBS using a Filtermate Harvester. After drying filter plates for 1 hour at 55° C., the back of the plates were sealed with foil and 30 μL/well scintillation fluid (Packard MicroScint 40) added, incubated for 15 minutes in the dark and counted in a MicroBeta reader. […] IC50 values were determined with a sigmoidal inhibition model with four variables (top, bottom, slope, IC50) in a global fit using the normalized replicate data.
Usually IC50 stands for the midpoint of a concentration-inhibition curve. Consider `CCC[CH2][Sn]([CH2]CCC)([CH2]CCC)[c]1ccc(NC(=O)CCn2c(=O)c3cnn(C)c3c3ccc(F)cc32)c(F)c1` [Example 24-1, 3-{7-Fluoro-1-methyl-4-oxo-1H,4H,5H-pyrazolo[4,3-c]quinolin-5-yl}-N-[2-fluoro-4-(tributylstannyl)phenyl]propanamide], for which the IC50 is less than 100 nM.

Still in this assay, the particulars now being: displacement of 0.3 nM [3H3-methyl]-5-((5-methoxypyridin-2-yl)methoxy)-2-(pyrazin-2-yl)benzo[d]oxazole from 1 μM aggregated Exon1-Q46, 60 minutes at 37° C.; read-out: Potency Range (IC50).
Regarding `O=C(CCn1c(=O)c2cccn2c2ccc(F)cc21)NC1CCCC1` [Example 3-37], the IC50 is less than 100 nM.

Regarding `COc1ccc(OCCCn2c(=O)c3cccn3c3ccc(F)cc32)nc1` [Example 11-1, 7-Fluoro-5-{3-[(5-methoxypyridin-2-yl)oxy]propyl}-4H,5H-pyrrolo[1,2-a]quinoxalin-4-one], the IC50 is less than 100 nM.

For `O=C(CCn1c(=O)c2cccn2c2ccc(F)cc21)N1CCc2ccncc21` [Example 3-57], the IC50 was less than 100 nM. As for `Cn1ncc2c(=O)n(CCC(=O)N3CCc4ncccc43)c3cc(F)ccc3c21` [Example 9-5], the IC50 is less than 100 nM. The same measure, in the same setting: the figure for `O=C(CCCn1c(=O)c2cccn2c2ccc(F)cc21)Nc1ccc(Cl)cc1` [Example 1-26] is less than 100 nM; for `O=C(CCn1c(=O)c2cccn2c2ccc(F)cc21)NCCc1cccnc1` [Example 3-33] it is less than 100 nM; for `Cc1cccc(NC(=O)CCn2c(=O)c3cccn3c3ccc(F)cc32)c1` [Example 3-21] it is less than 100 nM. On the same count and under the same terms, the figure for `COC1CCC(NC(=O)CCCn2c(=O)c3cccn3c3ccc(F)cc32)CC1` (stereo not drawn) [Example 1-32] is 100 to 500 nM.

With `O=C(CCCn1c(=O)c2cccn2c2ccc(F)cc21)N1CCCC(C(F)(F)F)C1` (stereo not drawn) [Example 1-45], the IC50 is less than 100 nM. Still for that read-out and setting: the figure for `O=C(CCn1c(=O)c2cccn2c2ccc(F)cc21)Nc1ccccn1` [Example 3-19] is less than 100 nM; for `Cn1ncc2c(=O)n(CCC(=O)Nc3cccc(Cl)c3F)c3cc(F)ccc3c21` [Example 9-19] it is less than 100 nM. In the case of `Cc1ccccc1NC(=O)CCn1c(=O)c2cccn2c2ccc(F)cc21` [Example 3-27], the IC50 was less than 100 nM.

Regarding `O=C(CCn1c(=O)c2cccn2c2ccc(F)cc21)Nc1cccc(Cl)c1` [Example 3-25], the IC50 is less than 100 nM.

On to `Cn1ncc2c(=O)n(CCC(=O)Nc3ccncc3F)c3cc(F)ccc3c21` [Example 9-7], for which the IC50 is less than 100 nM. The same measure, in the same setting: the figure for `Cc1nn(C)c2c1c(=O)n(CCC(=O)Nc1ccc(F)cc1F)c1cc(F)ccc21` [Example 9-26] is less than 100 nM; for `Cn1ncc2c(=O)n(CCC(=O)Nc3ccccc3F)c3cc(F)ccc3c21` [Example 9-11] it is less than 100 nM. As to `O=C(CCn1c(=O)c2cccn2c2ccc(F)cc21)N1CCc2ccccc21` [Example 3-46], the IC50 is less than 100 nM. With `COc1cc2c(cn1)CCN(C(=O)CCn1c(=O)c3cccn3c3ccc(F)cc31)C2` [Example 3-48], the IC50 was less than 100 nM. On the same count and under the same terms, the figure for `Cn1ccc2c3ccc(F)cc3n(CCC(=O)Nc3ccc(F)cc3F)c(=O)c21` [Example 22-1, N-(2,4-Difluorophenyl)-3-{7-fluoro-3-methyl-4-oxo-3H,4H,5H-pyrrolo[2,3-c]quinolin-5-yl}propanamide] is less than 100 nM; for `COc1cccc(NC(=O)CCCn2c(=O)c3cccn3c3cccnc32)c1` [Example 4-5] it is less than 100 nM.

With `Cc1cccc(NC(=O)CCn2c(=O)c3ccnn3c3ccc(F)cc32)n1` [Example 8-9], the IC50 was less than 100 nM. Turning to `COc1ccnc(NC(=O)CCn2c(=O)c3cccn3c3ccc(F)cc32)c1` [Example 3-13], the IC50 is less than 100 nM. Same read-out and setting: the figure for `O=C(CCn1c(=O)c2cccn2c2ccc(F)cc21)N1CCCCC1` [Example 3-1, 7-Fluoro-5-[3-oxo-3-(piperidin-1-yl)propyl]-4H,5H-pyrrolo[1,2-a]quinoxalin-4-one] is less than 100 nM; for `Cc1ccc(NC(=O)CCn2c(=O)c3cccn3c3ccc(F)cc32)cn1` [Example 3-8] it is less than 100 nM. With `Cn1ncc2c(=O)n(CCC(=O)N3Cc4ccccc4C3)c3cc(F)ccc3c21` [Example 9-8], the IC50 is less than 100 nM. Still for that read-out and setting: the figure for `COc1ccc(NC(=O)CCn2c(=O)c3c(Cl)ccn3c3ccc(F)cc32)nc1` [Example 3-61] is less than 100 nM; for `COc1ccc(N(C)C(=O)CCCn2c(=O)c3cccn3c3ccc(F)cc32)cc1` [Example 1-23] it is less than 100 nM.

In the case of `O=C(CCn1c(=O)c2cccn2c2ccc(F)cc21)N1CCCC1` [Example 3-43], the IC50 is less than 100 nM. Same read-out and setting: the figure for `COc1ccc(NC(=O)CCCn2c(=O)c3nccn3c3ccc(F)cc32)nc1` [Example 5-14] is less than 100 nM; for `O=C(CCCn1c(=O)c2cccn2c2ccc(F)cc21)NCCc1ccccc1` [Example 1-20] it is less than 100 nM; for `O=C(CCn1c(=O)c2cccn2c2ccc(F)cc21)N1CCc2cnccc2C1` [Example 3-51] it is less than 100 nM. As for `O=C(CCn1c(=O)c2cccn2c2ccc(F)cc21)NCC1CCCCC1` [Example 3-35], the IC50 is less than 100 nM. On the same count and under the same terms, the figure for `CC1CC(C)CN(C(=O)CCCn2c(=O)c3cccn3c3ccccc32)C1` (stereo not drawn) [Example 29-2] is less than 100 nM. Still for that read-out and setting: the figure for `CN(C)CCNC(=O)CCn1c(=O)c2cccn2c2ccc(F)cc21` [Example 3-39] is 100 to 500 nM; for `Cc1nn(C)c2c1c(=O)n(CCC(=O)Nc1ccccc1F)c1cc(F)ccc21` [Example 9-27] it is less than 100 nM. The same measure, in the same setting: the figure for `Cc1ccnc(NC(=O)CCn2c(=O)c3ccnn3c3ccc(F)cc32)c1` [Example 8-11] is less than 100 nM; for `CNC(=O)CCCn1c(=O)c2cccn2c2ccc(F)cc21` [Example 1-33] it is 100 to 500 nM. Take `O=C(CCn1c(=O)c2cc(F)cn2c2ccc(F)cc21)N1Cc2cccnc2C1` [Example 3-65]: the IC50 was less than 100 nM. Still for that read-out and setting: the figure for `Cn1ncc2c(=O)n(CCC(=O)Nc3ccc(F)cc3F)c3cc(F)ccc3c21` [Example 9-18, N-(2,4-Difluorophenyl)-3-(7-fluoro-1-methyl-4-oxo-pyrazolo[4,3-c]quinolin-5-yl)propanamide] is less than 100 nM. Regarding `O=C(CCn1c(=O)c2cccn2c2ccc(F)cc21)NCCc1ccccc1` [Example 3-30], the IC50 is less than 100 nM. Same read-out and setting: the figure for `O=C(CCCn1c(=O)c2cccn2c2ccc(F)cc21)Nc1ccccc1` [Example 1-9] is less than 100 nM. Same read-out and setting: the figure for `C[C@H]1C[C@H](C)CN(C(=O)CCCn2c(=O)c3cccn3c3ccc(F)cc32)C1` [Example 1-3] is less than 100 nM; for `COc1ccc2c(c1)n(CCCC(=O)Nc1ccc(C)cc1)c(=O)c1cccn12` [Example 5-6] it is less than 100 nM; for `O=C(CCCn1c(=O)c2cccn2c2ccc(F)cc21)NCc1cccnc1` [Example 1-7] it is 100 to 500 nM. The same measure, in the same setting: the figure for `COc1cc(NC(=O)CCn2c(=O)c3cccn3c3ccc(F)cc32)ccn1` [Example 3-5] is less than 100 nM; for `COc1ccccc1NC(=O)CCn1c(=O)c2ccnn2c2ccc(F)cc21` [Example 8-5] it is less than 100 nM; for `O=C(CCCn1c(=O)c2cccn2c2ccc(F)cc21)Nc1cccnc1` [Example 1-24] it is less than 100 nM.

Take `O=C(CCn1c(=O)c2ccnn2c2ccc(F)cc21)N1CCc2ncccc21` [Example 8-4]: the IC50 is less than 100 nM. Same read-out and setting: the figure for `C[C@@H]1CN(C(=O)CCCn2c(=O)c3cccn3c3ccc(F)cc32)C[C@@H]1C` [Example 1-47] is less than 100 nM; for `O=C(CCn1c(=O)c2cccn2c2ccc(F)cc21)Nc1cccnc1` [Example 3-23] it is less than 100 nM.
